From patent US5726156A, “Cytokine regulatory agents and methods of use in pathologies and conditions associated with altered cytokine levels” (Trega Biosciences, Inc., priority 1995, dated 1998)

Legend:
IL-1-induced fever = experiment: IL-1β-induced temperature increase (fever); type: in vivo, rats; settings: 500 μg/kg IP
Method: Male Wistar rats (45-75 days old) were placed in a temperature controlled room held at 26° C., which is thermoneutral for the normal body temperature of rats, and were maintained in the room with free access to food and water for 24 hr prior to testing. On the morning of the study, rats were marked for identification and weighed. The temperature of each rat was determined by placing the animal in a regulatory cage designed to minimize stress and inserting a temperature probe (YSI probe #402) 3-5 cm into the animal's rectum. The temperature was recorded 15 sec after the reading stabilized. Measurements were repeated 1 hr later to establish a baseline temperature for each rat.
After the baseline temperatures were established, rats were injected IP with saline, IL-1β or LPS endotoxin. Rats then were injected IP with either saline (control) or various concentrations of EX-2, EX-3, or EX-4 (treated). The temperature of the rats was measured every hr for 6 hr and the inhibition by EX-2, EX-3, or EX-4 of the rise in temperature due to IL-1β or LPS was determined.
In addition, treatment with 50 or 150 μg/kg EX-2 inhibited LPS-induced fever by 45% or 52%, respectively, when measured 6 hr following LPS injection. Furthermore, treatment with 150 μg/kg EX-3 or EX-4 inhibited LPS-induced fever by 57% and 52%, respectively (Table II).

disuse deconditioning = experiment: Disuse deconditioning (tail suspension) in rats; type: in vivo; settings: 1 or 5 μg/kg IP twice daily
Method: Adult male Sprague-Dawley rats (355-365 g) were used in this study. Animals were housed individually in standard rat cages and were acclimated on a treadmill for 4 days. The next day, a baseline tail bleed was performed, followed by a maximal treadmill stress test the day after. The day following the stress test, the animals were divided into the appropriate treatment and control groups and the animals were suspended by their tails in suspension cages, which simulates weightlessness and, therefore, deconditions the animals. Another group of control animals was placed in standard rat cages with grated flooring similar to that utilized in the suspension cages. All animals were housed one per cage and supplied with food and water ad libitum. Body weights and food consumptions were measured daily. Animals received twice daily IP injections of 1 μg/kg or 5 μg/kg body weight of EX-2 (treated), or 1 ml/kg body weight of saline (control). On day 10, all animals were stress tested on the treadmill until they reached exhaustion. Data on maximum VO2 and running time were collected and compared to pre-suspension results. On day 14, all animals were sacrificed, and blood, tissues, and organs were collected for further analysis. All procedures and tests were performed blind to avoid researcher subjectivity. Statistical significance (p<0.05) between groups was evaluated by ANOVA with Student-Newman-Keuls test for multiple comparisons. All data are reported as the mean ± standard error (SE).
All of the animals were subjected to the stress tests, which measured exercise time and maximal VO2. As well, levels of the oxidative enzyme soleus citrate synthase and tibia bone density were measured.
Soleus citrate synthase was attenuated by 50%.

[1] = test system: inducible nitric oxide synthase (iNOS); experiment: Inducible nitric oxide synthase (iNOS), cGMP accumulation in rat aorta smooth muscle cells; type: cell-based; settings: RASMC induced with LPS, IL-1β or TNF-α; 0.1 or 1 μM EX-2
Method: Rat aorta smooth muscle cells (RASMC) were isolated from male rats (325-350 g) using the previously published procedures of Gelsterfer et al., Circ. Res. 62:749-756 (1988), which is incorporated herein by reference. Cells were positively identified as smooth muscle cells by indirect immunofluorescent staining for anti-α-actin, using a mouse anti-α-actin antibody and anti-mouse IgG FITC conjugate. Cells were grown in T-75 tissue culture flasks (Corning Delbelco's Glass, Inc.; Corning, NY) in 50% F12 and 50% Delbelco's Modified Eagle Medium (DMEM) supplemented with 10% bovine serum, 0.2 g/1 L-glutamine, penicillin (100 U/ml) and streptomycin (0.1 mg/ml).
Cells between passages 1-5 were pretreated with one of the following: vehicle, LPS (1 μg/ml), IL-1β (10 U/ml), or TNF-α (100 U/ml) for 6 hr. […] Accumulation of cGMP was determined following exposure to 0.3 mM 3-isobutyl-1-methyl xanthine (IBMX in the presence or absence of 1 mM L-arginine. Medium was then rapidly aspirated and 500 μl of 0.1N HCl was added to each well to stop the reactions and extract cGMP. Thirty min later, the HC1 extract was collected and cell remnants removed from the wells by adding hot 1.0N NaOH and scraping the well with a rubber policeman. The HCl extract was analyzed for cGMP by RIA and the NaOH-solubilized cell remnants were used for protein determination. […]

[2] = suspended rats, stress test day 10

Substance: Ac-Nle-Gln-His-(D)Phe-Arg-(D)Trp-Gly-NH2 [EX-2]
- Reduction in IL-1-induced Fever (IL-1-induced fever): 52%
- % Attenuation of suspension-induced decrease, Soleus Citrate Synthase (disuse deconditioning; 14 days suspension): 50%
- % Attenuation of suspension-induced decrease, Tibia Bone Density (disuse deconditioning; 14 days suspension): 50%
- % Attenuation of suspension-induced decrease, Exercise Time (disuse deconditioning; [2]): 44%
- % Attenuation of suspension-induced decrease, Maximal VO2 (disuse deconditioning; [2]): 80%
- % Reduction of induced increase, iNOS, cGMP (pmol/100 mg/15 min) [1]: 60%
